From patent publication US20210227814A1, “A TRANSGENIC INVERTEBRATE MODEL FOR ALZHEIMER'S DISEASE AND USE THEREOF” (National Center for Geriatrics and Gerontology, priority 2017, published 2021)

What was measured:
Type in all cases: in vivo
[1] = tested on: transgenic Drosophila strains expressing Dut40; assay: Western blotting of aggregated Aβ in Drosophila expressing only Dut40; settings: Neu5Ac feeding (−) or (+); flies expressing Dut40 only
[2] = tested on: transgenic Drosophila expressing GALT6 and SAT1; assay: LC-MS of GM3 ganglioside production in transgenic Drosophila; settings: Neu5Ac feeding (+) vs (−), 10 mM Neu5Ac/150 mM sucrose solution, heads of adults
Method: The obtained Drosophila strains were grown on Ebios Cornmeal Sucrose Agar medium at a temperature of 25° C., and in a light-dark cycle of 12 hours. In order to provide a sialic acid donor substrate Neu5Ac, Drosophila was allowed to freely lick filter paper soaked with a 10 mM Neu5Ac/150 mM sucrose solution for 24 hours every other day for 1 to 2 weeks. In order to check whether GM3 ganglioside is produced in the transgenic Drosophila strains prepared, liquid chromatography mass spectrometry (LC-MS) was carried out. The spectrometry was carried out with respect to the following Drosophila strains: (1) wild type (Neu5Ac feeding (−)) (negative control) (2) transgenic Drosophila expressing GALT6 alone (Neu5Ac feeding (−)), (3) transgenic Drosophila expressing GALT6 and SAT1 (Neu5Ac feeding (−)), (4) transgenic Drosophila expressing GALT6 and SAT1 (Neu5Ac feeding (+)), (5) transgenic Drosophila expressing SAT1 alone (Neu5Ac feeding (+)), and (6) transgenic Drosophila expressing GALT6, SAT1 and GNE (Neu5Ac feeding (−)). For each of the transgenic Drosophila strains, 200 to 1000 heads of adults were collected. To the heads, TBS buffer (50 mM Tris-HCl (pH7.6), 150 mM NaCl) was added, and the mixture was homogenized, and then dried. The obtained pellet was suspended in a solution mixture of chloroform: methanol (v/v=2:1) and a lipid extraction liquid was collected. […]

[3] = tested on: transgenic Drosophila strain expressing GALT6, SAT1 and Dut40; assay: Western blotting of aggregated Aβ (TBS insoluble fraction) in brain tissue; settings: Neu5Ac feeding (+) compared to (−), GALT6, SAT1 and Dut40 flies
Method: The obtained Drosophila strains were grown on Ebios Cornmeal Sucrose Agar medium at a temperature of 25° C., and in a light-dark cycle of 12 hours. In order to provide a sialic acid donor substrate Neu5Ac, Drosophila was allowed to freely lick filter paper soaked with a 10 mM Neu5Ac/150 mM sucrose solution for 24 hours every other day for 1 to 2 weeks. To confirm whether of GM3 ganglioside-dependent aggregated Aβ is accumulated in the transgenic Drosophila co-expressing GM3 ganglioside and Dut40, a sample prepared from the brain tissue of a transgenic Drosophila strain expressing GALT6, SAT1 and Dut40, was subjected to western blotting. From 100 heads of adults of each of the transgenic Drosophila strain expressing GALT6, SAT1 and Dut40 (Neu5Ac feeding (−)) and the transgenic Drosophila expressing GALT6, SAT1 and Dut40 (Neu5Ac feeding (+)), were collected, homogenized in TBS buffer and subjected to ultracentrifugation (100,000 g, one hour, 4° C.). The supernatant was collected (TBS soluble fraction). The remaining sediment was again homogenized in 100% formic acid and centrifuged (14,000 rpm, 20 minutes, 25° C.) to remove unnecessary components. […] Bands were detected by ECL western blotting detection system (GE Healthcare Life Sciences). The bands detected were analyzed by Image Analysis Software (ImageJ, made by the National Institutes of Health) to convert into numerical values. […]

CC(=O)N[C@H]1[C@H]([C@@H](O)[C@@H](O)CO)O[C@@](O)(C(=O)O)C[C@@H]1O [Neu5Ac]
effect on the aggregation of Dut40 [1]: does not have an effect
production of GM3 ganglioside [2]: confirmed
amount of aggregated Dut40 [3]: increased
